From patent US6054435A, “6-O-substituted macrolides having antibacterial activity” (priority 1999, dated 2000)
Values after ≈ are worked out from the molar mass of the structure shown.

Experiments:
Assay in all cases: in vitro antibacterial activity (MIC), agar dilution
Assay type in all cases: cell-based
[1] = test system: Streptococcus Pneumonia 5979; settings: organism code ZZ; BHI agar, 35-37° C., 20 to 24 hours; unit assumed
Summary of the method: (§1)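 Plates of BHI agar were prepared with twelve aqueous dilutions of compound, then inoculated at 1:100 dilution, or 1:10 for slow growers like Streptococcus. After incubation they were inspected, and the lowest concentration yielding no growth, slight haze or sparse colonies was recorded as MIC.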

[2] = test system: Staphylococcus aureus A5177; settings: organism code BB; BHI agar, 35-37° C., 20 to 24 hours; unit assumed
Summary of the method: as §1

[3] = test system: Staphylococcus aureus CMX 642A; settings: organism code DD; BHI agar, 35-37° C., 20 to 24 hours; unit assumed
Summary of the method: as §1

[4] = test system: Staphylococcus epidermidis 3519; settings: organism code HH; BHI agar, 35-37° C., 20 to 24 hours; unit assumed
Summary of the method: as §1

[5] = test system: Streptococcus Pneumonia 5649; settings: organism code ZZA; BHI agar, 35-37° C., 20 to 24 hours; unit assumed
Summary of the method: as §1

[6] = test system: Mycobacterium smegmatis ATCC 114; settings: organism code UU; BHI agar, 35-37° C., 20 to 24 hours; unit assumed
Summary of the method: as §1

[7] = test system: Staphylococcus aureus CMX 553; settings: organism code FF; BHI agar, 35-37° C., 20 to 24 hours; unit assumed
Summary of the method: as §1

[8] = test system: Streptococcus bovis A-5169; settings: organism code JJ; BHI agar, 35-37° C., 20 to 24 hours; unit assumed
Summary of the method: as §1

[9] = test system: Nocardia Asteroides ATCC9970; settings: organism code VV; BHI agar, 35-37° C., 20 to 24 hours; unit assumed
Summary of the method: as §1

Escherichia coli DC-2 = settings: organism code SS; BHI agar, 35-37° C., 20 to 24 hours; unit assumed
Summary of the method: as §1

[10] = test system: Staphylococcus aureus ATCC 6538P; settings: organism code AA; BHI agar, 35-37° C., 20 to 24 hours; unit assumed
Summary of the method: as §1

[11] = test system: Streptococcus Pneumonia GYR 1171; settings: organism code YY; BHI agar, 35-37° C., 20 to 24 hours; unit assumed
Summary of the method: as §1

Candida albicans CCH 442 = settings: organism code TT; BHI agar, 35-37° C., 20 to 24 hours; unit assumed
Summary of the method: as §1

[12] = test system: Streptococcus pyogenes PIU 2548; settings: organism code NN; BHI agar, 35-37° C., 20 to 24 hours; unit assumed
Summary of the method: as §1

[13] = test system: Streptococcus pyogenes 930; settings: organism code MM; BHI agar, 35-37° C., 20 to 24 hours; unit assumed
Summary of the method: as §1

[14] = test system: Haemophilis Influenzae DILL AMP R; settings: organism code WW; BHI agar, 35-37° C., 20 to 24 hours; unit assumed
Summary of the method: as §1

Escherichia coli JUHL = settings: organism code QQ; BHI agar, 35-37° C., 20 to 24 hours; unit assumed
Summary of the method: as §1

[15] = test system: Enterococcus faecium ATCC 8043; settings: organism code II; BHI agar, 35-37° C., 20 to 24 hours; unit assumed
Summary of the method: as §1

[16] = test system: Staphylococcus aureus A-5278; settings: organism code CC; BHI agar, 35-37° C., 20 to 24 hours; unit assumed
Summary of the method: as §1

[17] = test system: Streptococcus agalactiae CMX 508; settings: organism code KK; BHI agar, 35-37° C., 20 to 24 hours; unit assumed
Summary of the method: as §1

Escherichia coli SS = settings: organism code RR; BHI agar, 35-37° C., 20 to 24 hours; unit assumed
Summary of the method: as §1

[18] = test system: Staphylococcus aureus 1775; settings: organism code GG; BHI agar, 35-37° C., 20 to 24 hours; unit assumed
Summary of the method: as §1

[19] = test system: Streptococcus Pneumonia ATCC6303; settings: organism code XX; BHI agar, 35-37° C., 20 to 24 hours; unit assumed
Summary of the method: as §1

[20] = test system: Micrococcus luteus ATCC 9341; settings: organism code OO; BHI agar, 35-37° C., 20 to 24 hours; unit assumed
Summary of the method: (§2)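 Test compound serially diluted in Brain Heart Infusion agar across twelve plates; inocula of 1:100 dilution (1:10 for slow growers such as Streptococcus) applied by Steers replicator. MIC taken visually as lowest concentration giving no growth, slight haze or sparse isolated colonies versus drug-free growth control.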

[21] = test system: Streptococcus pyogenes EES61; settings: organism code LL; BHI agar, 35-37° C., 20 to 24 hours; unit assumed
Summary of the method: as §1

[22] = test system: Staphylococcus aureus NCTC10649M; settings: organism code EE; BHI agar, 35-37° C., 20 to 24 hours; unit assumed
Summary of the method: as §1

[23] = test system: Micrococcus luteus ATCC 4698; settings: organism code PP; BHI agar, 35-37° C., 20 to 24 hours; unit assumed
Summary of the method: as §2

CC[C@H]1OC(=O)[C@H](C)C(=O)[C@H](C)[C@@H](O[C@@H]2O[C@H](C)C[C@H](N(C)C)[C@H]2O)[C@](C)(OCC#Cc2ccc(-c3cccc([N+](=O)[O-])c3)s2)C[C@@H](C)C(=O)[C@H](C)[C@H]2NC(=O)O[C@@]21C [Example 21]
MIC [1]: 2 µg/mL (≈ 2.38 µM) | MIC [2]: 0.05 µg/mL (≈ 0.0595 µM) | MIC [3]: 0.05 µg/mL (≈ 0.0595 µM) | MIC [4]: 0.2 µg/mL (≈ 0.238 µM) | MIC [5]: 0.5 µg/mL (≈ 0.595 µM) | MIC [6]: 0.2 µg/mL (≈ 0.238 µM) | MIC [7]: 0.05 µg/mL (≈ 0.0595 µM) | MIC [8]: 0.02 µg/mL (≈ 0.0238 µM) | MIC [9]: 0.2 µg/mL (≈ 0.238 µM) | MIC (Escherichia coli DC-2): > 100 µg/mL | MIC [10]: 0.1 µg/mL (≈ 0.119 µM) | MIC [11]: 0.03 µg/mL (≈ 0.0357 µM) | MIC (Candida albicans CCH 442): > 100 µg/mL | MIC [12]: 0.2 µg/mL (≈ 0.238 µM) | MIC [13]: 0.78 µg/mL (≈ 0.929 µM) | MIC [14]: 8 µg/mL (≈ 9.52 µM) | MIC (Escherichia coli JUHL): > 100 µg/mL | MIC [15]: 0.05 µg/mL (≈ 0.0595 µM) | MIC [16]: > 100 µg/mL | MIC [17]: 0.02 µg/mL (≈ 0.0238 µM) | MIC (Escherichia coli SS): 0.2 µg/mL (≈ 0.238 µM) | MIC [18]: 100 µg/mL (≈ 119 µM) | MIC [19]: 0.03 µg/mL (≈ 0.0357 µM) | MIC [20]: 0.02 µg/mL (≈ 0.0238 µM) | MIC [21]: 0.02 µg/mL (≈ 0.0238 µM) | MIC [22]: 0.1 µg/mL (≈ 0.119 µM) | MIC [23]: 0.05 µg/mL (≈ 0.0595 µM)

CC[C@H]1OC(=O)[C@H](C)C(=O)[C@H](C)[C@@H](O[C@@H]2O[C@H](C)C[C@H](N(C)C)[C@H]2O)[C@](C)(OCC#Cc2ccc(-c3ccc(F)cc3)s2)C[C@@H](C)C(=O)[C@H](C)[C@H]2NC(=O)O[C@@]21C [Example 22]
MIC [1]: 4 µg/mL (≈ 4.92 µM) | MIC [2]: 3.1 µg/mL (≈ 3.81 µM) | MIC [3]: 3.1 µg/mL (≈ 3.81 µM) | MIC [4]: 3.1 µg/mL (≈ 3.81 µM) | MIC [5]: 4 µg/mL (≈ 4.92 µM) | MIC [6]: 1.56 µg/mL (≈ 1.92 µM) | MIC [7]: 3.1 µg/mL (≈ 3.81 µM) | MIC [8]: 0.39 µg/mL (≈ 0.48 µM) | MIC [9]: 0.78 µg/mL (≈ 0.959 µM) | MIC (Escherichia coli DC-2): > 100 µg/mL | MIC [10]: 3.1 µg/mL (≈ 3.81 µM) | MIC [11]: 1 µg/mL (≈ 1.23 µM) | MIC (Candida albicans CCH 442): > 100 µg/mL | MIC [12]: 3.1 µg/mL (≈ 3.81 µM) | MIC [13]: > 100 µg/mL | MIC [14]: 64 µg/mL (≈ 78.7 µM) | MIC (Escherichia coli JUHL): > 100 µg/mL | MIC [15]: 0.78 µg/mL (≈ 0.959 µM) | MIC [16]: > 100 µg/mL | MIC [17]: 0.39 µg/mL (≈ 0.48 µM) | MIC (Escherichia coli SS): 25 µg/mL (≈ 30.8 µM) | MIC [18]: > 100 µg/mL | MIC [19]: 1 µg/mL (≈ 1.23 µM) | MIC [20]: 0.39 µg/mL (≈ 0.48 µM) | MIC [21]: 0.39 µg/mL (≈ 0.48 µM) | MIC [22]: 3.1 µg/mL (≈ 3.81 µM) | MIC [23]: 3.1 µg/mL (≈ 3.81 µM)

CC[C@H]1OC(=O)[C@H](C)C(=O)[C@H](C)[C@@H](O[C@@H]2O[C@H](C)C[C@H](N(C)C)[C@H]2O)[C@](C)(OCC#Cc2ccc(-c3ccco3)s2)C[C@@H](C)C(=O)[C@H](C)[C@H]2NC(=O)O[C@@]21C [Example 23]
MIC [1]: 8 µg/mL (≈ 10.2 µM) | MIC [2]: 0.05 µg/mL (≈ 0.0637 µM) | MIC [3]: 0.05 µg/mL (≈ 0.0637 µM) | MIC [4]: 0.05 µg/mL (≈ 0.0637 µM) | MIC [5]: 0.25 µg/mL (≈ 0.318 µM) | MIC [6]: 0.78 µg/mL (≈ 0.994 µM) | MIC [7]: 0.05 µg/mL (≈ 0.0637 µM) | MIC [8]: 0.01 µg/mL (≈ 0.0127 µM) | MIC [9]: 0.02 µg/mL (≈ 0.0255 µM) | MIC (Escherichia coli DC-2): 50 µg/mL (≈ 63.7 µM) | MIC [10]: 0.05 µg/mL (≈ 0.0637 µM) | MIC [11]: 0.03 µg/mL (≈ 0.0382 µM) | MIC (Candida albicans CCH 442): > 100 µg/mL | MIC [12]: 0.1 µg/mL (≈ 0.127 µM) | MIC [13]: 6.2 µg/mL (≈ 7.9 µM) | MIC [14]: 2 µg/mL (≈ 2.55 µM) | MIC (Escherichia coli JUHL): 50 µg/mL (≈ 63.7 µM) | MIC [15]: 0.02 µg/mL (≈ 0.0255 µM) | MIC [16]: > 100 µg/mL | MIC [17]: ≤ 0.005 µg/mL | MIC (Escherichia coli SS): 0.39 µg/mL (≈ 0.497 µM) | MIC [18]: > 100 µg/mL | MIC [19]: 0.03 µg/mL (≈ 0.0382 µM) | MIC [20]: 0.01 µg/mL (≈ 0.0127 µM) | MIC [21]: 0.1 µg/mL (≈ 0.127 µM) | MIC [22]: 0.05 µg/mL (≈ 0.0637 µM) | MIC [23]: 0.05 µg/mL (≈ 0.0637 µM)
